Results reported in PMC8604237 (Clinical and Translational Science, 2021).

Assays:
patients with SBS [1] = test: Time- and exposure-response analysis of prescribed PS; assay type: in vivo, human; conditions: for percent change from baseline of prescribed PS volume (maximum) / percent change from baseline of PS volume (maximum): 0.05 mg/kg
[2] = cited from earlier work
[3] = single dose, non-Japanese adults; cited from earlier work
patients with SBS [4] = conditions: cited from earlier work
[5] = Population PK analysis of teduglutide; assay type: in vivo, human
[6] = single and repeated doses up to 20 mg

impact of race (Japanese vs. non-Japanese) on CL/F ([5]; covariate analysis): did not have an impact
impact of race (Japanese vs. non-Japanese) on K a ([5]; covariate analysis): did not have an impact
impact of race (Japanese vs. non-Japanese) on V/F ([5]; covariate analysis): did not have an impact
CL/F in female subjects, lower relative to male subjects ([5]; final PopPK model): 7%
V/F of typical subject of 0.38 years relative to typical subject of 34 years ([5]; final PopPK model): fourfold higher
absorption lag time ([5]; final PopPK model, corresponds to 0.299 h): 17.9 min
time of peak concentrations after dosing ([5]; observed individual concentrations, adult and pediatric patients with SBS, s.c.): 3 to 5 h
terminal elimination half-life (t 1/2), population estimate ([5]; patients with SBS, final PopPK model): 1.47 h
mean C max,ss in Japanese adult patients, higher than in non-Japanese adult patients ([5]; s.c. 0.05 mg/kg, SBS): 23%
mean C max,ss in Japanese pediatric patients, difference from non-Japanese pediatric patients ([5]; s.c. 0.05 mg/kg, SBS): ≤ 20%
time to total absorption after dosing ([5]; suggested by K a 0.330 h^−1 and lag time 17.9 min): ~10 h
Compound: CC[C@H](C)[C@H](NC(=O)[C@H](Cc1ccccc1)NC(=O)[C@H](CC(=O)O)NC(=O)[C@H](CCCNC(=N)N)NC(=O)[C@H](C)NC(=O)[C@H](C)NC(=O)[C@H](CC(C)C)NC(=O)[C@H](CC(N)=O)NC(=O)[C@H](CC(=O)O)NC(=O)[C@H](CC(C)C)NC(=O)[C@@H](NC(=O)[C@@H](NC(=O)[C@H](CC(N)=O)NC(=O)[C@H](CCSC)NC(=O)[C@H](CCC(=O)O)NC(=O)[C@H](CC(=O)O)NC(=O)[C@H](CO)NC(=O)[C@H](Cc1ccccc1)NC(=O)[C@H](CO)NC(=O)CNC(=O)[C@H](CC(=O)O)NC(=O)CNC(=O)[C@@H](N)Cc1c[nH]cn1)[C@@H](C)O)[C@@H](C)CC)C(=O)N[C@@H](CC(N)=O)C(=O)N[C@@H](Cc1c[nH]c2ccccc12)C(=O)N[C@@H](CC(C)C)C(=O)N[C@H](C(=O)N[C@@H](CCC(N)=O)C(=O)N[C@H](C(=O)N[C@@H](CCCCN)C(=O)N[C@H](C(=O)N[C@H](C(=O)N[C@@H](CC(=O)O)C(=O)O)[C@@H](C)O)[C@@H](C)CC)[C@@H](C)O)[C@@H](C)CC [teduglutide]
percent change from baseline of prescribed PS volume (maximum) (patients with SBS [1]; Japanese pediatric patients with SBS): −29.7%
percent change from baseline of PS volume (maximum) (patients with SBS [1]; adult Japanese patients with SBS): −62.6%
percent change from baseline of PS volume (maximum) (patients with SBS [1]; adult non-Japanese patients with SBS): −54.9%
percent change from baseline of prescribed PS volume (maximum) (patients with SBS [1]; non-Japanese pediatric patients with SBS): −74.7%
maximum reduction in PS (patients with SBS [1]; daily dosing of 0.05 mg/kg): 5.76 L/week
E max of teduglutide on prescribed PS volume (patients with SBS [1]; final time- and exposure-response model, change from baseline in prescribed PS volume): −5.76 L/week
terminal elimination half-life [2]: ~ 2 h
time of maximum plasma levels after dosing ([2]; s.c. injection): 3 to 5 h
accumulation [2, 6]: no accumulation
rate and extent of absorption vs dose [2, 6]: dose‐proportional
AUCinf in individuals with ESRD vs healthy volunteers [3]: more than twofold higher
C max in individuals with ESRD vs healthy volunteers [3]: more than twofold higher
incidence of adverse events leading to discontinuation of treatment (patients with SBS [4]; 0.05 mg/kg, adult patients with SBS, 24-week study): less than 5%
responder rate (≥20% reduction from baseline in the volume of PS) (patients with SBS [4]; daily s.c. 0.05 mg/kg, patients with SBS, vs. 30% placebo, p = 0.002): 63%
